# Laboratory results taken from patent publication US11008331B2, “Hepatitis B virus surface antigen inhibitor” (FUJIAN COSUNTER PHARMACEUTICAL CO., LTD., priority 2017, dated 2021).
# Like-named read-outs stand apart in the source and are kept apart here.
# Columns and labels:
# [1] = tested on: HBV DNA; assay: HBV in vitro test: HBV DNA in HepG2.2.15 culture supernatant by real time-qPCR; assay type: cell-based, Hepatitis B Virus (HBV)
# Protocol: (§1) The content of HBV DNA in HepG2. 2. 15 cell culture supernatant was detected by a real-time quantitative qPCR assay (real time-qPCR), and the content of HBV surface antigen was detected by enzyme-linked immunosorbent assay (ELISA), the compound EC50 value was used as an index to evaluate the inhibitory effect of the compound on HBV.
# (§2) 3.1. HepG2. 2. 15 cells (4×10^4 cells/well) was plated into a 96-well plate and cultured overnight at 37° C., 5% CO2.
# (§3) 3.2. The next day, the compound was diluted to 8 concentrations, 3-folds gradients dilution. The compound of different gradients were added into the culture well, double duplicated the wells. The final concentration of the DMSO was 0.5% in the culture solution. 10 μM ETV was used as 100% inhibition control; 0.5% of DMSO was used as 0% inhibition control.
# (§4) 3.3. On the fifth day, the culture solution was replaced by fresh culture solution containing the compound.
# (§5) 3.4. On the eighth day, the culture solution in the culture well was collected, and the content of hepatitis B virus S antigen was measured by ELISA with partial samples; and still partial samples was taken for extraction of DNA using high-throughput DNA purification kit (Qiagen-51162).
# 3.6. 15 μL reaction mixture was added into each well of the 96-well PCR plate, then in each well was added 10 μL sample DNA or standard product of HBV DNA.
# 3.7. The qPCR plate was sealed with optical sealing film, centrifuged at 1500 rpm for 2 minutes, and then the HBV copy number of each sample was quantitatively detected by fluorescence quantitative qPCR. The operation procedure of qPCR is as follows
# Calculation of the Inhibition Percentage % Inh.=(1−value in the sample/DMSO control group value)×100%.
# The dose-response curves was fitted by GraphPad Prism software, and the 50% inhibited concentration EC50 value of the compound against HBV was calculated.
# [2] = tested on: HBV surface antigen (HBsAg); assay: HBV in vitro test: HBV surface antigen in HepG2.2.15 culture supernatant by ELISA; assay type: cell-based, Hepatitis B Virus (HBV)
# Protocol: as §1, §2, §3, §4, §5
# 3.9. Content determination of hepatitis B virus S antigen measured by ELISA
# 50 μL sample and standard sample were taken and added into the reaction plate respectively, then 50 μL enzyme conjugate was added into each of the wells, shaked to mix well, then kept in warm bath at 37° C. for 60 min, and the plate was washed with cleansing solution for 5 times, 50 μL luminescent substrate was added into each wells, mixed well and reacted at r.t. for 10 min in the dark, the chemiluminescence intensity was finally detected with ELISA. The inhibition percentage of each compound was calculated by the following formula: inhibition rate (%)=(1−value in sample/DMSO control group value)×100%. The dose-response curves was fitted by GraphPad Prism software, and the 50% inhibited concentration EC50 value of the compound against HBV was calculated.
# [3] = Hepatitis B virus, HepG2.2.15, HepG2. 2. 15 cell culture supernatant, collected on the eighth day, real time-qPCR, read-out: HBV-DNA experimental results EC50
# [4] = Hepatitis B virus, HepG2.2.15, read-out: HBsAg experimental results EC50
# [5] = Hepatitis B virus, HepG2.2.15, read-out: HBV-DNA experimental results EC50
Structure (SMILES),"EC50 [1, 3] [µM]","EC50 [2, 4] [µM]","EC50 [1, 5] [µM]","EC50 ([1]; HepG2. 2. 15 cell culture supernatant, collected on the eighth day, real time-qPCR, read-out: HBV-DNA experimental results EC50) [µM]","EC50 ([2]; HepG2. 2. 15 cell culture supernatant, collected on the eighth day, ELISA, read-out: HBsAg experimental results EC50) [µM]"
COc1cc2c(cc1Cl)-c1cc(=O)c(C(=O)O)cn1C(c1ccccc1)O2 (stereo not drawn) [Embodiment 1],0.0118,0.0276,,,
CC(C)(CO)COc1cc2c(cc1Cl)-c1cc(=O)c(C(=O)O)cn1C(c1ccccc1)O2 (stereo not drawn) [Embodiment 2],0.0345,0.0558,,,
COCCOc1cc2c(cc1Cl)-c1cc(=O)c(C(=O)O)cn1C(c1ccccc1)O2 (stereo not drawn) [Embodiment 3],0.0276,0.0476,,,
O=C(O)c1cn2c(cc1=O)-c1cc(Cl)c(OCC(F)F)cc1OC2c1ccccc1 (stereo not drawn) [Embodiment 4],0.015,0.0319,,,
O=C(O)c1cn2c(cc1=O)-c1cc(Cl)c(OCCN3CCOCC3)cc1OC2c1ccccc1 (stereo not drawn) [Embodiment 5],0.0151,0.05,,,
O=C(O)c1cn2c(cc1=O)-c1cc(Cl)c(OCCCO)cc1OC2c1ccccc1 (stereo not drawn) [Embodiment 6],0.00604,0.0203,,,
O=C(O)c1cn2c(cc1=O)-c1cc(Cl)c(OCCO)cc1OC2c1ccccc1 (stereo not drawn) [Embodiment 7],0.211,0.299,,,
O=C(O)c1cn2c(cc1=O)-c1cc(Cl)c(OCCCCCO)cc1OC2c1ccccc1 (stereo not drawn) [Embodiment 8],0.0208,0.0662,,,
C#CCOc1cc2c(cc1Cl)-c1cc(=O)c(C(=O)O)cn1C(c1ccccc1)O2 (stereo not drawn) [Embodiment 9],0.0741,0.138,,,
O=C(O)c1cn2c(cc1=O)-c1cc(Cl)c(OCC(F)(F)CO)cc1OC2c1ccccc1 (stereo not drawn) [Embodiment 10],0.051,0.102,,,
CS(=O)(=O)CCCOc1cc2c(cc1Cl)-c1cc(=O)c(C(=O)O)cn1C(c1ccccc1)O2 (stereo not drawn) [Embodiment 11],0.0408,0.0739,,,
O=C(O)c1cn2c(cc1=O)-c1cc(Cl)c(OCCCN3CCCC3=O)cc1OC2c1ccccc1 (stereo not drawn) [Embodiment 12],0.0781,0.213,,,
COCCCOc1cc2c(cc1Cl)-c1cc(=O)c(C(=O)O)cn1C(c1nccs1)O2 (stereo not drawn) [Embodiment 14],,0.00688,0.00688,,
COCCCOc1cc2c(cc1Cl)-c1cc(=O)c(C(=O)O)cn1C(c1ccccc1Cl)O2 (stereo not drawn) [Embodiment 15],0.0082,,,,
COCCCOc1cc2c(cc1Cl)-c1cc(=O)c(C(=O)O)cn1C(c1cccc(Cl)c1)O2 (stereo not drawn) [Embodiment 16],,0.0453,0.0453,,
COCCCOc1cc2c(cc1Cl)-c1cc(=O)c(C(=O)O)cn1C(c1ccc(Cl)cc1)O2 (stereo not drawn) [Embodiment 17],,0.254,0.254,,
COCCCOc1cc2c(cc1Cl)-c1cc(=O)c(C(=O)O)cn1C(c1ccc(F)cc1)O2 (stereo not drawn) [Embodiment 18],0.0408,0.0737,,,
COCCCOc1cc2c(cc1Cl)-c1cc(=O)c(C(=O)O)cn1C(c1ccccc1F)O2 (stereo not drawn) [Embodiment 19],0.00388,0.0209,,,
COCCCOc1cc2c(cc1Cl)-c1cc(=O)c(C(=O)O)cn1C(c1cccc(F)c1)O2 (stereo not drawn) [Embodiment 20],0.011,0.0225,,,
COCCCOc1cc2c(cc1Cl)-c1cc(=O)c(C(=O)O)cn1C(c1ccccc1C)O2 (stereo not drawn) [Embodiment 21],0.00712,0.0163,,,
COCCCOc1cc2c(cc1Cl)-c1cc(=O)c(C(=O)O)cn1C(c1cccc(C)c1)O2 (stereo not drawn) [Embodiment 22],0.0206,0.0382,,,

Structure (SMILES),"EC50 [1, 3] [µM]","EC50 [2, 4] [µM]","EC50 [1, 5] [µM]","EC50 ([1]; HepG2. 2. 15 cell culture supernatant, collected on the eighth day, real time-qPCR, read-out: HBV-DNA experimental results EC50) [µM]","EC50 ([2]; HepG2. 2. 15 cell culture supernatant, collected on the eighth day, ELISA, read-out: HBsAg experimental results EC50) [µM]"
COCCCOc1cc2c(cc1Cl)-c1cc(=O)c(C(=O)O)cn1C(c1ccc(C)cc1)O2 (stereo not drawn) [Embodiment 23],0.0859,0.127,,,
COCCCOc1cc2c(cc1Cl)-c1cc(=O)c(C(=O)O)cn1C(c1cc(F)cc(OC)c1)O2 (stereo not drawn) [Embodiment 24],0.0593,0.0355,,,
COCCCOc1cc2c(cc1Cl)-c1cc(=O)c(C(=O)O)cn1C(c1cc(F)ccc1OC)O2 (stereo not drawn) [Embodiment 25],0.0187,0.0359,,,
COCCCOc1cc2c(cc1Cl)-c1cc(=O)c(C(=O)O)cn1C(c1cc(OC)ccc1F)O2 (stereo not drawn) [Embodiment 26],0.152,0.101,,,
COCCCOc1cc2c(cc1Cl)-c1cc(=O)c(C(=O)O)cn1C(c1c(F)cccc1Cl)O2 (stereo not drawn) [Embodiment 27],0.0236,0.0391,,,
COCCCOc1cc2c(cc1Cl)-c1cc(=O)c(C(=O)O)cn1C(c1nc(C)c(C)s1)O2 (stereo not drawn) [Embodiment 28],0.278,0.152,,,
COCCCOc1cc2c(cc1Cl)-c1cc(=O)c(C(=O)O)cn1C(c1c(F)cccc1F)O2 (stereo not drawn) [Embodiment 29],0.00411,0.0122,,,
COCCCOc1cc2c(cc1Cl)-c1cc(=O)c(C(=O)O)cn1C(c1cc(F)cc(F)c1)O2 (stereo not drawn) [Embodiment 30],0.0185,0.0282,,,
COCCCOc1cc2c(cc1Cl)-c1cc(=O)c(C(=O)O)cn1C(c1cccc(F)c1F)O2 (stereo not drawn) [Embodiment 31],0.0905,0.203,,,
COCCCOc1cc2c(cc1Cl)-c1cc(=O)c(C(=O)O)cn1C(c1cc(F)ccc1F)O2 (stereo not drawn) [Embodiment 32],0.0352,0.0711,,,
COCCCOc1cc2c(cc1Cl)-c1cc(=O)c(C(=O)O)cn1C(c1ccc(F)cc1F)O2 (stereo not drawn) [Embodiment 33],0.0126,0.0103,,,
COCCCOc1cc2c(cc1Cl)-c1cc(=O)c(C(=O)O)cn1C(c1ccc(OC)cc1F)O2 (stereo not drawn) [Embodiment 34],0.0213,0.0296,,,
COCCCOc1cc2c(cc1Cl)-c1cc(=O)c(C(=O)O)cn1C(c1cnsc1C)O2 (stereo not drawn) [Embodiment 35],,,,0.0251,0.011
COCCCOc1cc2c(cc1Cl)-c1cc(=O)c(C(=O)O)cn1C(c1cnsc1)O2 (stereo not drawn) [Embodiment 37],0.0106,0.0266,,,
COCCCOc1cc2c(cc1Cl)-c1cc(=O)c(C(=O)O)cn1C(c1cncs1)O2 (stereo not drawn) [Embodiment 38],0.0204,0.0123,,,
COCCCOc1cc2c(cc1Cl)-c1cc(=O)c(C(=O)O)cn1C(c1ncc(C)s1)O2 (stereo not drawn) [Embodiment 41],0.0178,0.058,,,
Cc1csc(C2Oc3cc(OCC4CC4)c(Cl)cc3-c3cc(=O)c(C(=O)O)cn32)n1 (stereo not drawn) [Embodiment 42],0.00219,0.00788,,,
COCCCOc1cc2c(cc1OC)-c1cc(=O)c(C(=O)O)cn1C(c1cscn1)O2 (stereo not drawn) [Embodiment 43],0.0194,0.0154,,,
O=C(O)c1cn2c(cc1=O)-c1cc(Cl)c(OCC3CC3)cc1OC2c1ncc(Cl)s1 (stereo not drawn) [Embodiment 44],0.129,0.212,,,
COCCCOc1cc2c(cc1Cl)-c1cc(=O)c(C(=O)O)cn1C(c1csc(Cl)c1Cl)O2 (stereo not drawn) [Embodiment 48],> 1,0.103,,,
